Measurements as given in ChEMBL document CHEMBL4507327 (2021).
Active and inactive are the calls of the source. No cut-off for these calls is given here.

Tests used:
[1] = molecular target: Neuropeptide Y receptor type 1 (Homo sapiens) (UniProt P25929); assay: Inhibition of Neuropeptide Y Y1 at 10 µM in the Eurofins-Panlabs radioligand binding assay (Eurofins_assay_257010); settings: Compound concentration 10.0 uM
[2] = molecular target: ATP-sensitive inward rectifier potassium channel 11 (Cricetulus griseus) (UniProt A0A3L7HHE1); assay: Inhibition of Potassium Channel [KATP] at 10 µM in the Eurofins-Panlabs radioligand binding assay (Eurofins_assay_265600); settings: Cricetinae; Compound concentration 10.0 uM
[3] = molecular target: Receptor-interacting serine/threonine-protein kinase 1 (Mus musculus, UniProt Q60855); assay: TR-FRET (mouse RIPK1)
[4] = molecular target: Alpha-1B adrenergic receptor (Homo sapiens) (UniProt P35368); assay: Adrenergic alpha1B Eurofins-Panlabs radioligand binding assay; parameters: ligand concentration 0.2 nM; settings: Compound concentration 10.0 uM
Activin receptor type-1 = Activin receptor type-1 (Homo sapiens, UniProt Q04771); assay: ALK2(ACV1LGF1) Takeda global kinase panel
[5] = molecular target: RAC-gamma serine/threonine-protein kinase (Homo sapiens, UniProt Q9Y243); assay: Akt3 [PKBgamma(AKT3LGY1)] Takeda global kinase panel
[6] = molecular target: Tyrosine-protein kinase Blk (Homo sapiens, UniProt P51451); assay: BLK(BLK1CGF1) Takeda global kinase panel
[7] = molecular target: Bone morphogenetic protein receptor type-1A (Homo sapiens, UniProt P36894); assay: BMPR1A(BM1APHRG) Takeda global kinase panel
[8] = molecular target: Serine/threonine-protein kinase B-raf (Homo sapiens, UniProt P15056); assay: BRAF(BRAFLGY1) Takeda global kinase panel
[9] = molecular target: Serine/threonine-protein kinase MRCK alpha (Homo sapiens, UniProt Q5VT25); assay: MRCKalpha(CD4ALGY1) Takeda global kinase panel
[10] = molecular target: Cell division cycle 7-related protein kinase (Homo sapiens, UniProt O00311); assay: CDC7(CDC7CGP1) Takeda global kinase panel
[11] = molecular target: Cyclin-dependent kinase 16 (Homo sapiens, UniProt Q00536); assay: PCTAIRE1(CD16SGS1) Takeda global kinase panel
[12] = molecular target: Cyclin-dependent kinase 17 (Homo sapiens, UniProt Q00537); assay: PCTAIRE2(CD17SGS1) Takeda global kinase panel
[13] = molecular target: Cyclin-dependent kinase 18 (Homo sapiens, UniProt Q07002); assay: PCTAIRE3(CD18SGS1) Takeda global kinase panel
[14] = molecular target: Cyclin-dependent kinase 3 (Homo sapiens, UniProt Q00526); assay: CDK3(CDK3CGS1) Takeda global kinase panel
[15] = molecular target: Serine/threonine-protein kinase Chk2 (Homo sapiens, UniProt O96017); assay: CHK2(CHE2LGY1) Takeda global kinase panel
[16] = molecular target: Casein kinase I isoform gamma-3 (Homo sapiens, UniProt Q9Y6M4); assay: CK1gamma3(C1G3LGI5) Takeda global kinase panel
[17] = molecular target: Casein kinase II subunit alpha (Homo sapiens, UniProt P68400); assay: CK2alpha1(C2A1LGF1) Takeda global kinase panel
[18] = molecular target: Casein kinase II subunit alpha' (Homo sapiens, UniProt P19784); assay: CK2alpha2(C2A2LGK1) Takeda global kinase panel
[19] = molecular target: Death-associated protein kinase 3 (Homo sapiens, UniProt O43293); assay: DAPK3(DAP3LGP1) Takeda global kinase panel
[20] = molecular target: Dual specificity tyrosine-phosphorylation-regulated kinase 1A (Homo sapiens, UniProt Q13627); assay: DYRK1A(DY1ALGP1) Takeda global kinase panel
[21] = molecular target: Epidermal growth factor receptor (Homo sapiens, UniProt P00533); assay: EGFR(EGFRMGB1) Takeda global kinase panel
Ephrin type-A receptor 1 = Ephrin type-A receptor 1 (Homo sapiens, UniProt P21709); assay: EphA1(EPA1LGY1) Takeda global kinase panel
Ephrin type-A receptor 3 = Ephrin type-A receptor 3 (Homo sapiens, UniProt P29320); assay: EphA3(EPA3LGD5) Takeda global kinase panel
Ephrin type-A receptor 4 = Ephrin type-A receptor 4 (Homo sapiens, UniProt P54764); assay: EphA4(EPA4LGF1) Takeda global kinase panel
Ephrin type-B receptor 4 = Ephrin type-B receptor 4 (Homo sapiens, UniProt P54760); assay: EphB4(EPB4LGY1) Takeda global kinase panel
Rhodopsin kinase GRK1 = Rhodopsin kinase GRK1 (Homo sapiens, UniProt Q15835); assay: RHODK [GRK1(GRK1LGA1)] Takeda global kinase panel
[22] = molecular target: Tyrosine-protein kinase JAK3 (Homo sapiens, UniProt P52333); assay: JAK3(JAK3LGRG) Takeda global kinase panel
LIM domain kinase 2 = LIM domain kinase 2 (Homo sapiens, UniProt P53671); assay: LIMK2(LIM2LGV1) Takeda global kinase panel
[23] = molecular target: Dual specificity mitogen-activated protein kinase kinase 1 (Homo sapiens, UniProt Q02750); assay: MEK1 [MAP2K1(M2K1LGF1)] Takeda global kinase panel
[24] = molecular target: Mitogen-activated protein kinase 1 (Homo sapiens, UniProt P28482); assay: ERK2(MAP1LGY1) Takeda global kinase panel
[25] = molecular target: Mitogen-activated protein kinase 10 (Homo sapiens, UniProt P53779); assay: JNK3(MP10LGF2) Takeda global kinase panel
[26] = molecular target: Serine/threonine-protein kinase Nek9 (Homo sapiens, UniProt Q8TD19); assay: Nek9(NEK9LGF1) Takeda global kinase panel
[27] = molecular target: Calcium/calmodulin-dependent protein kinase type 1B (Homo sapiens, UniProt Q6P2M8); assay: CaMK1beta(PNCKLGRI) Takeda global kinase panel
[28] = molecular target: Ribosomal protein S6 kinase alpha-1 (Homo sapiens, UniProt Q15418); assay: RSK1 [p90RSK(R6A2CGE1)] Takeda global kinase panel
[29] = molecular target: Ribosomal protein S6 kinase alpha-4 (Homo sapiens, UniProt O75676); assay: MSK2(R6A4LGRJ) Takeda global kinase panel
[30] = molecular target: STE20-like serine/threonine-protein kinase (Homo sapiens, UniProt Q9H2G2); assay: SLK(SLK1LGRJ) Takeda global kinase panel
SRSF protein kinase 1 = SRSF protein kinase 1 (Homo sapiens, UniProt Q96SB4); assay: SRPK1(SRP1IHRL) Takeda global kinase panel
SRSF protein kinase 3 = SRSF protein kinase 3 (Homo sapiens, UniProt Q9UPE1); assay: MSSK1(SRP3MHRL) Takeda global kinase panel
[31] = molecular target: Serine/threonine-protein kinase TAO3 (Homo sapiens, UniProt Q9H2K8); assay: TAO3(TAO3LGY1) Takeda global kinase panel
TGF-beta receptor type-2 = TGF-beta receptor type-2 (Homo sapiens, UniProt P37173); assay: TGFbetaR2(TGF2LGY1) Takeda global kinase panel
[32] = molecular target: Serine/threonine-protein kinase ULK3 (Homo sapiens, UniProt Q6PHR2); assay: ULK3(ULK3LGF1) Takeda global kinase panel
[33] = molecular target: Wee1-like protein kinase 2 (Homo sapiens, UniProt P0C1S8); assay: Wee1B(WE1BLGF1) Takeda global kinase panel
[34] = molecular target: Bromodomain-containing protein 4 (Homo sapiens, UniProt O60885); assay: BRD4(BRD4LGRC) Takeda global kinase panel

Alpha-1B adrenergic receptor (Homo sapiens), sequence (P35368 whole entry): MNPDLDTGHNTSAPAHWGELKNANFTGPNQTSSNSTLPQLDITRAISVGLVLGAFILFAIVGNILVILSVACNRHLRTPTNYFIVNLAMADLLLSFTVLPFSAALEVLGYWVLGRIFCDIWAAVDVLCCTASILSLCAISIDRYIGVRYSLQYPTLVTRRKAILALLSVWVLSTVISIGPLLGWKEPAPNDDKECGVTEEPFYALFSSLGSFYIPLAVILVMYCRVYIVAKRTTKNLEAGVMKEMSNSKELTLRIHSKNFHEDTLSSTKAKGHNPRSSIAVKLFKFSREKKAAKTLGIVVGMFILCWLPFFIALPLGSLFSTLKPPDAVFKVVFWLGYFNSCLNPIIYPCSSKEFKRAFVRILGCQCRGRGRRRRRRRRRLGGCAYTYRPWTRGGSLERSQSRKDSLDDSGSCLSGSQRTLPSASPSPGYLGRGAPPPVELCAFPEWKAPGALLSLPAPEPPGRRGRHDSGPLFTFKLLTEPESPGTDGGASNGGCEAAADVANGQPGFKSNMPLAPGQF
Mitogen-activated protein kinase 1, sequence (P28482 whole entry): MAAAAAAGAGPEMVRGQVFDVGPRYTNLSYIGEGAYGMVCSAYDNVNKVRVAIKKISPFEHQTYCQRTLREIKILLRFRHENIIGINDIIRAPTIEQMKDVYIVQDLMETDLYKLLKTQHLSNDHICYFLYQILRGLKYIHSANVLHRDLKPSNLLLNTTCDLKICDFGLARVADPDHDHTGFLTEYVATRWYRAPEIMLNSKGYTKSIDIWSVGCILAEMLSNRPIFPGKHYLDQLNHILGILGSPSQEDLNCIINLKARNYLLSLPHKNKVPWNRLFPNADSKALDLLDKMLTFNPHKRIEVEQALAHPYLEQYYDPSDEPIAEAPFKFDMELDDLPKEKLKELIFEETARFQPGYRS
SRSF protein kinase 1, sequence (Q96SB4 whole entry): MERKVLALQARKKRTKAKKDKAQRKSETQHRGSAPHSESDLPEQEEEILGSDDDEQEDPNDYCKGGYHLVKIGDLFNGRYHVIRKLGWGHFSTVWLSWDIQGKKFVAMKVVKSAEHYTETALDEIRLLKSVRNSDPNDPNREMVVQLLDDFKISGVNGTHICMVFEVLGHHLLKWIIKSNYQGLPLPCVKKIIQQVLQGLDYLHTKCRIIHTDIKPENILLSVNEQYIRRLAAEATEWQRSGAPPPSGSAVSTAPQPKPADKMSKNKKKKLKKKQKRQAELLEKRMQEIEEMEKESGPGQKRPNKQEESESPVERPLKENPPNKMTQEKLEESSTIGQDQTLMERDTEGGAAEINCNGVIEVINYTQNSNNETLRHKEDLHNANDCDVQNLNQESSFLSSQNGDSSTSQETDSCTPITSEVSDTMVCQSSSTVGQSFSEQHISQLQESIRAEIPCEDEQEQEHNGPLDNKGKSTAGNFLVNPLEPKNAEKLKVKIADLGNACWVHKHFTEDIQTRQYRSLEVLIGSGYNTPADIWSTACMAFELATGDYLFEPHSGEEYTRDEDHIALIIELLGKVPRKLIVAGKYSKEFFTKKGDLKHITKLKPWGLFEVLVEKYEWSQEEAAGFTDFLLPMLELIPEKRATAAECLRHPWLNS
Epidermal growth factor receptor, sequence (P00533 whole entry): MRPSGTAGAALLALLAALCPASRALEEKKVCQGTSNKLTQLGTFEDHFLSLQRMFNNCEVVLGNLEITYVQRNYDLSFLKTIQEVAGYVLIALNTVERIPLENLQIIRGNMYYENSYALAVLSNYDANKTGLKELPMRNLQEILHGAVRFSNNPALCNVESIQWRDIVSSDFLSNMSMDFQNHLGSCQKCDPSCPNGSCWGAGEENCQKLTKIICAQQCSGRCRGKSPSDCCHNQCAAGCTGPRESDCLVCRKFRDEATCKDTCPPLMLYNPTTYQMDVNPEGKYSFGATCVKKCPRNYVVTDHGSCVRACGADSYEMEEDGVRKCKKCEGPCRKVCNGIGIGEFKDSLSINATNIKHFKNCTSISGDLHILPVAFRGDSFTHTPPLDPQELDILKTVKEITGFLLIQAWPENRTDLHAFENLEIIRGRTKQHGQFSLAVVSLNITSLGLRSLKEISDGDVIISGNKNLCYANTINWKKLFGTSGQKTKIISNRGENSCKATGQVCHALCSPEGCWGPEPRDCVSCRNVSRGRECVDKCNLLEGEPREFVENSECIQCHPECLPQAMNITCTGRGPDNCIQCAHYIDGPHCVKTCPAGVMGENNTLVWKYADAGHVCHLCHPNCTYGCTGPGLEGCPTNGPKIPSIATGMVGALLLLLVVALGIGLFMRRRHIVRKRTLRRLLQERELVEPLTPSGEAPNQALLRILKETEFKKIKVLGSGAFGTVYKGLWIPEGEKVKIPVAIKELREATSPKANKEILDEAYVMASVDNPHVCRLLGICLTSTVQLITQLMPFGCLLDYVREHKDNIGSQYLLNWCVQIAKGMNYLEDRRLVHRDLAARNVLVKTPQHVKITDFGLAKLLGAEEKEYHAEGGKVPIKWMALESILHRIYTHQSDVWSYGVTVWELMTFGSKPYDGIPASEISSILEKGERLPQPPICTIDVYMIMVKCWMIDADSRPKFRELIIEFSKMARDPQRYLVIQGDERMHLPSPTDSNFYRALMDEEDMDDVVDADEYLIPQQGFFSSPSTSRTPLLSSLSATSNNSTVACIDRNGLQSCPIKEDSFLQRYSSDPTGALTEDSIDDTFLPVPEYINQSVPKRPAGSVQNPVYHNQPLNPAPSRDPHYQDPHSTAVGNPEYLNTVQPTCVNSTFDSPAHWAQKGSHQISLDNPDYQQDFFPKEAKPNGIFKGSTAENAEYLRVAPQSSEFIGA
Rhodopsin kinase GRK1, sequence (Q15835 whole entry): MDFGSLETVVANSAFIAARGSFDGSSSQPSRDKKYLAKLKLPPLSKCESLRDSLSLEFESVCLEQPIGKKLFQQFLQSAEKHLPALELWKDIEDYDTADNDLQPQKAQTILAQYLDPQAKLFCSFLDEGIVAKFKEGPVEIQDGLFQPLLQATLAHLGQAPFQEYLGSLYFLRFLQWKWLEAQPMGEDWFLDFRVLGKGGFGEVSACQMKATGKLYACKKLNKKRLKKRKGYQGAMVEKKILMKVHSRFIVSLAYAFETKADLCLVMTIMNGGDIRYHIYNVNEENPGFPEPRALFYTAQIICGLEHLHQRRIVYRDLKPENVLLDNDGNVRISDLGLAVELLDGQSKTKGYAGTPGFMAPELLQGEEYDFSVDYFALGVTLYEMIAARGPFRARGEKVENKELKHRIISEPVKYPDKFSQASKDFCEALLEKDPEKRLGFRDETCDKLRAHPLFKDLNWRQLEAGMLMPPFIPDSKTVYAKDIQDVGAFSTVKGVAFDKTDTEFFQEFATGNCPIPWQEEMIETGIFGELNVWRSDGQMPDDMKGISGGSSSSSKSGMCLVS
Ephrin type-A receptor 4, sequence (P54764 whole entry): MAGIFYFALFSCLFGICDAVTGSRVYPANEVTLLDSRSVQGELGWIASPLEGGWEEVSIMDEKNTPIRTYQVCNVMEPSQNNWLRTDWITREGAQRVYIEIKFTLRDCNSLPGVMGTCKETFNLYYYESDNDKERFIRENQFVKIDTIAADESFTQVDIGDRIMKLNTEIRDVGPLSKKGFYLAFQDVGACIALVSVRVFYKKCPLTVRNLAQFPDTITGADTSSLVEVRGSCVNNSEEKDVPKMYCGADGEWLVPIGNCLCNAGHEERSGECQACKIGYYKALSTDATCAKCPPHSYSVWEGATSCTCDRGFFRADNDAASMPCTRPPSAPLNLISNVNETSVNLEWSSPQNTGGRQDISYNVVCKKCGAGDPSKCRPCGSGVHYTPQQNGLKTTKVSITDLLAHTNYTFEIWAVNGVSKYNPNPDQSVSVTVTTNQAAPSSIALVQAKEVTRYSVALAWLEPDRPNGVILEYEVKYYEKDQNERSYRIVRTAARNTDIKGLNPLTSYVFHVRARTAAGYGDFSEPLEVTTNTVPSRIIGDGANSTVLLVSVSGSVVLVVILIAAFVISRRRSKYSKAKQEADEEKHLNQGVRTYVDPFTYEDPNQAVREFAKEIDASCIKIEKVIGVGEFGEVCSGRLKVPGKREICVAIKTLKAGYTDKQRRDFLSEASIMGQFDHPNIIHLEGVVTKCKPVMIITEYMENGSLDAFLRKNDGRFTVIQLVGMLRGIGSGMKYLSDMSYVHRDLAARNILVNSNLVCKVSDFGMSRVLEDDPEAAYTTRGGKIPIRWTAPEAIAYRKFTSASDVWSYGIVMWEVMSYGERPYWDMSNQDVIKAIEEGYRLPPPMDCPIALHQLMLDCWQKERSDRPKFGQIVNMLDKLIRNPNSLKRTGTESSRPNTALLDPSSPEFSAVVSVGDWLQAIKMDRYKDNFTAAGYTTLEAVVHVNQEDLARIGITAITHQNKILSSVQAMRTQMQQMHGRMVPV
Ribosomal protein S6 kinase alpha-4, sequence (O75676 whole entry): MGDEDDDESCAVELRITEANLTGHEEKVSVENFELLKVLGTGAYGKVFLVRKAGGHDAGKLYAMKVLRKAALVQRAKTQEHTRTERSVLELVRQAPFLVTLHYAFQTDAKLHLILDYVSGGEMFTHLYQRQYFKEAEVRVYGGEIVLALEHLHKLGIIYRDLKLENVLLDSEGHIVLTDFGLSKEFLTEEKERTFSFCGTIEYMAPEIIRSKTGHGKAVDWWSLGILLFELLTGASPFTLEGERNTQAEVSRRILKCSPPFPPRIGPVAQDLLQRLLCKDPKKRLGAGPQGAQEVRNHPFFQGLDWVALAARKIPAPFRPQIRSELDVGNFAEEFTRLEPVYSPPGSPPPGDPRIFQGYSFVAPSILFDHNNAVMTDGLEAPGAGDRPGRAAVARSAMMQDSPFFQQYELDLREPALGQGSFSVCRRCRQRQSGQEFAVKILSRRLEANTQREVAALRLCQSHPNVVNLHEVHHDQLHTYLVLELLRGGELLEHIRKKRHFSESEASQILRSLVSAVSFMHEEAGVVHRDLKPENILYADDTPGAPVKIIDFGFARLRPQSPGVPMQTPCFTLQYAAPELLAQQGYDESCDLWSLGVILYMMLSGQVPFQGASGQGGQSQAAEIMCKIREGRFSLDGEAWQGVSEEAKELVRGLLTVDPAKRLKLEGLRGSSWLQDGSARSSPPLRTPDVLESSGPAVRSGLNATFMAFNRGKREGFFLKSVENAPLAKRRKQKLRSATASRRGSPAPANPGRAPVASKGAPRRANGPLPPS

Structure (SMILES): CN1C(=O)[C@@H](N2CCc3cn(Cc4ccccc4)nc3C2=O)COc2ccccc21 [TP-030-1]
- inhibition [1]: 4%
- inhibition [2]: 6%
- IC50 [3]: 4200 nM (active)
- inhibition [4]: 2%
- IC50 (Activin receptor type-1): 1000 nM
- IC50 [5]: 1000 nM
- IC50 [6]: 1000 nM
- IC50 [7]: 1000 nM
- IC50 [8]: 1000 nM
- IC50 [9]: 1000 nM
- IC50 [10]: 1000 nM
- IC50 [11]: 1000 nM
- IC50 [12]: 1000 nM
- IC50 [13]: 1000 nM
- IC50 [14]: 1000 nM
- IC50 [15]: 1000 nM
- IC50 [16]: 1000 nM
- IC50 [17]: 1000 nM
- IC50 [18]: 1000 nM
- IC50 [19]: 1000 nM
- IC50 [20]: 1000 nM
- IC50 [21]: 1000 nM
- IC50 (Ephrin type-A receptor 1): 1000 nM
- IC50 (Ephrin type-A receptor 3): 1000 nM
- IC50 (Ephrin type-A receptor 4): 1000 nM
- IC50 (Ephrin type-B receptor 4): 1000 nM
- IC50 (Rhodopsin kinase GRK1): 1000 nM
- IC50 [22]: 1000 nM
- IC50 (LIM domain kinase 2): 1000 nM
- IC50 [23]: 1000 nM
- IC50 [24]: 1000 nM
- IC50 [25]: 1000 nM
- IC50 [26]: 1000 nM
- IC50 [27]: 1000 nM
- IC50 [28]: 1000 nM
- IC50 [29]: 1000 nM
- IC50 [30]: 1000 nM
- IC50 (SRSF protein kinase 1): 1000 nM
- IC50 (SRSF protein kinase 3): 1000 nM
- IC50 [31]: 1000 nM
- IC50 (TGF-beta receptor type-2): 1000 nM
- IC50 [32]: 1000 nM
- IC50 [33]: 1000 nM
- IC50 [34]: 1000 nM

Structure (SMILES): CN1C(=O)[C@@H](N2CCc3cn(CC4CCS(=O)(=O)CC4)nc3C2=O)COc2ccccc21 [TP-030n]
- inhibition [1]: -3%
- inhibition [2]: 5%
- IC50 [3]: > 10000 nM (not active)
- inhibition [4]: 1%
- IC50 (Activin receptor type-1): 1000 nM
- IC50 [5]: 1000 nM
- IC50 [6]: 1000 nM
- IC50 [7]: 1000 nM
- IC50 [8]: 1000 nM
- IC50 [9]: 1000 nM
- IC50 [10]: 1000 nM
- IC50 [11]: 1000 nM
- IC50 [12]: 1000 nM
- IC50 [13]: 1000 nM
- IC50 [14]: 1000 nM
- IC50 [15]: 1000 nM
- IC50 [16]: 1000 nM
- IC50 [17]: 1000 nM
- IC50 [18]: 1000 nM
- IC50 [19]: 1000 nM
- IC50 [20]: 1000 nM
- IC50 [21]: 1000 nM
- IC50 (Ephrin type-A receptor 1): 1000 nM
- IC50 (Ephrin type-A receptor 3): 1000 nM
- IC50 (Ephrin type-A receptor 4): 1000 nM
- IC50 (Ephrin type-B receptor 4): 1000 nM
- IC50 (Rhodopsin kinase GRK1): 1000 nM
- IC50 [22]: 1000 nM
- IC50 (LIM domain kinase 2): 1000 nM
- IC50 [23]: 1000 nM
- IC50 [24]: 1000 nM
- IC50 [25]: 1000 nM
- IC50 [26]: 1000 nM
- IC50 [27]: 1000 nM
- IC50 [28]: 1000 nM
- IC50 [29]: 1000 nM
- IC50 [30]: 1000 nM
- IC50 (SRSF protein kinase 1): 1000 nM
- IC50 (SRSF protein kinase 3): 1000 nM
- IC50 [31]: 1000 nM
- IC50 (TGF-beta receptor type-2): 1000 nM
- IC50 [32]: 1000 nM
- IC50 [33]: 1000 nM
- IC50 [34]: 1000 nM
